Reference: PubChem BioAssay AID2060493 (Molecular Pharmacology Branch, DTP, NCI, 2025)

System: 616215-338-R-J1-PDC tumor spheroids, viability
Experiment: Anticancer human tumor 616215-338-R-J1-PDC patient-derived colon adenocarcinoma cell line growth inhibition [GQUAD]
Details: spheroids with HUVEC and MSC; for IC50: curve of first compound; for viability, T/C: stronger effect = lower value
Outline: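 Tumor cells were grown as complex spheroids with HUVEC endothelial cells and mesenchymal stem cells as stroma. G-quadruplex stabilizers were combined with targeted agents over half-log dilutions from near the clinical Cmax, or from 10 microM.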

[1] = second compound 0.0316 µM, first compound 0.0316 µM
[2] = second compound 0.0316 µM, first compound 0.1 µM
[3] = second compound 0.0316 µM, first compound 0.316 µM
[4] = second compound 0.0316 µM, first compound 1 µM
[5] = second compound 0.0316 µM, first compound 3.16 µM
[6] = second compound 0.0316 µM, first compound 10 µM
[7] = second compound 0.1 µM, first compound 0.0316 µM
[8] = second compound 0.1 µM, first compound 0.1 µM
[9] = second compound 0.1 µM, first compound 0.316 µM
[10] = second compound 0.1 µM, first compound 1 µM
[11] = second compound 0.1 µM, first compound 3.16 µM
[12] = second compound 0.1 µM, first compound 10 µM
[13] = second compound 0.316 µM, first compound 0.0316 µM
[14] = second compound 0.316 µM, first compound 0.1 µM
[15] = second compound 0.316 µM, first compound 0.316 µM
[16] = second compound 0.316 µM, first compound 1 µM
[17] = second compound 0.316 µM, first compound 3.16 µM
[18] = second compound 0.316 µM, first compound 10 µM
[19] = second compound 1 µM, first compound 0.0316 µM
[20] = second compound 1 µM, first compound 0.1 µM
[21] = second compound 1 µM, first compound 0.316 µM
[22] = second compound 1 µM, first compound 1 µM
[23] = second compound 1 µM, first compound 3.16 µM
[24] = second compound 1 µM, first compound 10 µM
[25] = second compound 3.16 µM, first compound 0.0316 µM
[26] = second compound 3.16 µM, first compound 0.1 µM
[27] = second compound 3.16 µM, first compound 0.316 µM
[28] = second compound 3.16 µM, first compound 1 µM
[29] = second compound 3.16 µM, first compound 3.16 µM
[30] = second compound 3.16 µM, first compound 10 µM
[31] = second compound 10 µM, first compound 0.0316 µM
[32] = second compound 10 µM, first compound 0.1 µM
[33] = second compound 10 µM, first compound 0.316 µM
[34] = second compound 10 µM, first compound 1 µM
[35] = second compound 10 µM, first compound 3.16 µM
[36] = second compound 10 µM, first compound 10 µM
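Note: spheroids exposed to agents for 7 days before readout.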
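Throughout, for viability, T/C: percent viability relative to DMSO vehicle control wells taken as 100%.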

C=CCn1c(=O)c2cnc(Nc3ccc(N4CCN(C)CC4)cc3)nc2n1-c1cccc(C(C)(C)O)n1 + Cc1[nH]c2ccc(F)cc2c1-c1nc2c3cccnc3c3ncccc3c2[nH]1
IC50 (second compound 0.0316 µM): 330 nM
IC50 (second compound 0.1 µM): 352 nM
IC50 (second compound 0.316 µM): 315 nM
IC50 (second compound 1 µM): 342 nM
IC50 (second compound 3.16 µM): 256 nM
IC50 (second compound 10 µM): 227 nM
viability, T/C [1]: 95.5%
viability, T/C [2]: 90.1%
viability, T/C [3]: 48.3%
viability, T/C [4]: 25.4%
viability, T/C [5]: 12.4%
viability, T/C [6]: 12.2%
viability, T/C [7]: 97.4%
viability, T/C [8]: 99.9%
viability, T/C [9]: 50.6%
viability, T/C [10]: 28.4%
viability, T/C [11]: 17.9%
viability, T/C [12]: 11.9%
viability, T/C [13]: 106%
viability, T/C [14]: 99.6%
viability, T/C [15]: 47.5%
viability, T/C [16]: 25.4%
viability, T/C [17]: 12.9%
viability, T/C [18]: 12.4%
viability, T/C [19]: 103%
viability, T/C [20]: 104%
viability, T/C [21]: 52%
viability, T/C [22]: 18.6%
viability, T/C [23]: 14.2%
viability, T/C [24]: 9.69%
viability, T/C [25]: 98.4%
viability, T/C [26]: 87.7%
viability, T/C [27]: 40.9%
viability, T/C [28]: 15.8%
viability, T/C [29]: 11.1%
viability, T/C [30]: 6.8%
viability, T/C [31]: 95.3%
viability, T/C [32]: 88.3%
viability, T/C [33]: 34%
viability, T/C [34]: 17.9%
viability, T/C [35]: 11.2%
viability, T/C [36]: 6.71%

Cc1[nH]c2ccccc2c1CCNCc1ccc(/C=C/C(=O)NO)cc1 + Cc1[nH]c2ccc(F)cc2c1-c1nc2c3cccnc3c3ncccc3c2[nH]1
IC50 (second compound 0.0316 µM): 145 nM
IC50 (second compound 0.1 µM): 178 nM
IC50 (second compound 0.316 µM): 162 nM
IC50 (second compound 1 µM): 131 nM
IC50 (second compound 3.16 µM): 132 nM
IC50 (second compound 10 µM): 125 nM
viability, T/C (second compound 0.0316 µM, first compound 0.000999 µM): 110%
viability, T/C (second compound 0.0316 µM, first compound 0.00316 µM): 98.6%
viability, T/C (second compound 0.0316 µM, first compound 0.00999 µM): 95.8%
viability, T/C [1]: 108%
viability, T/C (second compound 0.0316 µM, first compound 0.0999 µM): 67.6%
viability, T/C [3]: 13.2%
viability, T/C (second compound 0.1 µM, first compound 0.000999 µM): 93.6%
viability, T/C (second compound 0.1 µM, first compound 0.00316 µM): 96.6%
viability, T/C (second compound 0.1 µM, first compound 0.00999 µM): 94.4%
viability, T/C [7]: 97%
viability, T/C (second compound 0.1 µM, first compound 0.0999 µM): 89.6%
viability, T/C [9]: 10.9%
viability, T/C (second compound 0.316 µM, first compound 0.000999 µM): 99.5%
viability, T/C (second compound 0.316 µM, first compound 0.00316 µM): 109%
viability, T/C (second compound 0.316 µM, first compound 0.00999 µM): 104%
viability, T/C [13]: 97.9%
viability, T/C (second compound 0.316 µM, first compound 0.0999 µM): 79.8%
viability, T/C [15]: 9.21%
viability, T/C (second compound 1 µM, first compound 0.000999 µM): 102%
viability, T/C (second compound 1 µM, first compound 0.00316 µM): 98.5%
viability, T/C (second compound 1 µM, first compound 0.00999 µM): 93.1%
viability, T/C [19]: 101%
viability, T/C (second compound 1 µM, first compound 0.0999 µM): 62%
viability, T/C [21]: 10.9%
viability, T/C (second compound 3.16 µM, first compound 0.000999 µM): 98%
viability, T/C (second compound 3.16 µM, first compound 0.00316 µM): 92.6%
viability, T/C (second compound 3.16 µM, first compound 0.00999 µM): 100%
viability, T/C [25]: 94%
viability, T/C (second compound 3.16 µM, first compound 0.0999 µM): 62.7%
viability, T/C [27]: 10.8%
viability, T/C (second compound 10 µM, first compound 0.000999 µM): 99.7%
viability, T/C (second compound 10 µM, first compound 0.00316 µM): 99.5%
viability, T/C (second compound 10 µM, first compound 0.00999 µM): 103%
viability, T/C [31]: 95.1%
viability, T/C (second compound 10 µM, first compound 0.0999 µM): 59.9%
viability, T/C [33]: 8.56%

O=C(NO)c1cnc(N2CCN(S(=O)(=O)c3ccc4ccccc4c3)CC2)nc1 + Cc1[nH]c2ccc(F)cc2c1-c1nc2c3cccnc3c3ncccc3c2[nH]1
IC50 (second compound 0.0316 µM): 406 nM
IC50 (second compound 0.1 µM): 343 nM
IC50 (second compound 0.316 µM): 466 nM
IC50 (second compound 1 µM): 369 nM
IC50 (second compound 3.16 µM): 324 nM
IC50 (second compound 10 µM): 422 nM
viability, T/C [1]: 96.2%
viability, T/C [2]: 94%
viability, T/C [3]: 62%
viability, T/C [4]: 6.64%
viability, T/C [5]: 0.1%
viability, T/C [6]: 0.12%
viability, T/C [7]: 98.6%
viability, T/C [8]: 94.8%
viability, T/C [9]: 53.8%
viability, T/C [10]: 1.07%
viability, T/C [11]: 0.04%
viability, T/C [12]: 0.07%
viability, T/C [13]: 117%
viability, T/C [14]: 110%
viability, T/C [15]: 74.5%
viability, T/C [16]: 1.02%
viability, T/C [17]: 0.02%
viability, T/C [18]: 0.05%
viability, T/C [19]: 103%
viability, T/C [20]: 94.6%
viability, T/C [21]: 57.6%
viability, T/C [22]: 4.76%
viability, T/C [23]: 0.03%
viability, T/C [24]: 0.06%
viability, T/C [25]: 104%
viability, T/C [26]: 96.9%
viability, T/C [27]: 51.4%
viability, T/C [28]: 2.81%
viability, T/C [29]: 0.06%
viability, T/C [30]: 0.08%
viability, T/C [31]: 103%
viability, T/C [32]: 94.6%
viability, T/C [33]: 65.7%
viability, T/C [34]: 3.03%
viability, T/C [35]: 0.15%
viability, T/C [36]: 0.63%
